# Experimental data from PubChem BioAssay (NCI).
#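 Here, GI50 denotes the concentration required for 50% inhibition of growth. Definition used: TGI = concentration required for complete inhibition of growth.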
# What was measured:
# Assay in all cases: NCI tumour cell line growth inhibition, 384-well format
# SF-539 CNS = system: SF-539 CNS
# SF-295 CNS = system: SF-295 CNS
# MALME-3M melanoma = system: MALME-3M melanoma
# NCI-H322M lung = system: NCI-H322M lung
# K-562 leukemia = system: K-562 leukemia
# OVCAR-3 ovarian = system: OVCAR-3 ovarian
# NCI-H522 lung = system: NCI-H522 lung
# SK-MEL-28 melanoma = system: SK-MEL-28 melanoma
# EKVX NSCLC = system: EKVX NSCLC
# LOX IMVI melanoma = system: LOX IMVI melanoma
# CCRF-CEM leukemia = system: CCRF-CEM leukemia
# SNB-19 CNS = system: SNB-19 CNS
# RXF 393 renal = system: RXF 393 renal
# A549 NSCLC = system: A549 NSCLC
# MDA-MB-468 breast = system: MDA-MB-468 breast
# MDA-MB-231 breast = system: MDA-MB-231 breast
# MCF7 breast = system: MCF7 breast
# HOP-62 NSCLC = system: HOP-62 NSCLC
# SR leukemia = system: SR leukemia
# 786-0 renal = system: 786-0 renal
# NCI-H226 lung = system: NCI-H226 lung
# M14 melanoma = system: M14 melanoma
# UACC-257 melanoma = system: UACC-257 melanoma
# UO-31 renal = system: UO-31 renal
# SN12C renal = system: SN12C renal
# IGROV1 ovarian = system: IGROV1 ovarian
# SK-MEL-5 melanoma = system: SK-MEL-5 melanoma
# OVCAR-5 ovarian = system: OVCAR-5 ovarian
# COLO 205 colon = system: COLO 205 colon
# SNB-75 CNS = system: SNB-75 CNS
# SF-268 CNS = system: SF-268 CNS
# SW-620 colon = system: SW-620 colon
# ACHN renal = system: ACHN renal
# MOLT-4 leukemia = system: MOLT-4 leukemia
# HCT-15 colon = system: HCT-15 colon
# NCI/ADR-RES ovarian = system: NCI/ADR-RES ovarian
# HL-60(TB) leukemia = system: HL-60(TB) leukemia
# HCC-2998 colon = system: HCC-2998 colon
# HOP-92 NSCLC = system: HOP-92 NSCLC
# TK-10 renal = system: TK-10 renal
# RPMI-8226 leukemia = system: RPMI-8226 leukemia
# NCI-H23 lung = system: NCI-H23 lung
# DU-145 prostate = system: DU-145 prostate
# NCI-H460 NSCLC = system: NCI-H460 NSCLC
# MDA-MB-435 melanoma = system: MDA-MB-435 melanoma
# HS 578T breast = system: HS 578T breast
# PC-3 prostate = system: PC-3 prostate
# OVCAR-8 ovarian = system: OVCAR-8 ovarian
# OVCAR-4 ovarian = system: OVCAR-4 ovarian
# CAKI-1 renal = system: CAKI-1 renal
# BT-549 breast = system: BT-549 breast
# KM12 colon = system: KM12 colon
# UACC-62 melanoma = system: UACC-62 melanoma
# T-47D breast = system: T-47D breast
smiles,measurement,setting,value
COc1cc(OC)c(/C=C/S(=O)(=O)Cc2ccc(OC)c(NCC(=O)O)c2)c(OC)c1,GI50,SF-539 CNS,20.8 nM
same,TGI,SF-539 CNS,50.8 nM
same,GI50,SF-295 CNS,23.1 nM
same,TGI,SF-295 CNS,57.6 nM
same,GI50,MALME-3M melanoma,25.9 nM
same,TGI,MALME-3M melanoma,92.9 nM
same,GI50,NCI-H322M lung,90.9 nM
same,TGI,NCI-H322M lung,> 100000 nM
same,GI50,K-562 leukemia,32.4 nM
same,TGI,K-562 leukemia,109 nM
same,GI50,OVCAR-3 ovarian,16.8 nM
same,TGI,OVCAR-3 ovarian,38.2 nM
same,GI50,NCI-H522 lung,14.4 nM
same,TGI,NCI-H522 lung,33 nM
same,GI50,SK-MEL-28 melanoma,63.7 nM
same,TGI,SK-MEL-28 melanoma,> 100000 nM
same,GI50,EKVX NSCLC,41.1 nM
same,TGI,EKVX NSCLC,> 100000 nM
same,GI50,LOX IMVI melanoma,45.7 nM
same,TGI,LOX IMVI melanoma,362 nM
same,GI50,CCRF-CEM leukemia,49.4 nM
same,TGI,CCRF-CEM leukemia,157 nM
same,GI50,SNB-19 CNS,43.9 nM
same,TGI,SNB-19 CNS,> 100000 nM
same,GI50,RXF 393 renal,16.8 nM
same,TGI,RXF 393 renal,49.4 nM
same,GI50,A549 NSCLC,61.3 nM
same,TGI,A549 NSCLC,> 100000 nM
same,GI50,MDA-MB-468 breast,17.5 nM
same,TGI,MDA-MB-468 breast,42.3 nM
same,GI50,MDA-MB-231 breast,92.9 nM
same,TGI,MDA-MB-231 breast,> 100000 nM
same,GI50,MCF7 breast,47.3 nM
same,TGI,MCF7 breast,26000 nM
same,GI50,HOP-62 NSCLC,42.6 nM
same,TGI,HOP-62 NSCLC,> 100000 nM
same,GI50,SR leukemia,16.1 nM
same,TGI,SR leukemia,31.6 nM
same,GI50,786-0 renal,30.7 nM
same,TGI,786-0 renal,607 nM
same,GI50,NCI-H226 lung,38.3 nM
same,TGI,NCI-H226 lung,> 100000 nM
same,GI50,M14 melanoma,25.9 nM
same,TGI,M14 melanoma,82.7 nM
same,GI50,UACC-257 melanoma,17.7 nM
same,TGI,UACC-257 melanoma,370 nM
same,GI50,UO-31 renal,86.2 nM
same,TGI,UO-31 renal,> 100000 nM
same,GI50,SN12C renal,63.8 nM
same,TGI,SN12C renal,> 100000 nM
same,GI50,IGROV1 ovarian,60.4 nM
same,TGI,IGROV1 ovarian,> 100000 nM
same,GI50,SK-MEL-5 melanoma,19.5 nM
same,TGI,SK-MEL-5 melanoma,45.8 nM
same,GI50,OVCAR-5 ovarian,135 nM
same,TGI,OVCAR-5 ovarian,> 100000 nM
same,GI50,COLO 205 colon,215 nM
same,TGI,COLO 205 colon,537 nM
same,GI50,SNB-75 CNS,35.1 nM
same,TGI,SNB-75 CNS,211 nM
same,GI50,SF-268 CNS,51 nM
same,TGI,SF-268 CNS,2040 nM
same,GI50,SW-620 colon,33.8 nM
same,TGI,SW-620 colon,> 100000 nM
same,GI50,ACHN renal,58.9 nM
same,TGI,ACHN renal,> 100000 nM
same,GI50,MOLT-4 leukemia,64.1 nM
same,TGI,MOLT-4 leukemia,187 nM
same,GI50,HCT-15 colon,32.3 nM
same,TGI,HCT-15 colon,373 nM
same,GI50,NCI/ADR-RES ovarian,16.4 nM
same,TGI,NCI/ADR-RES ovarian,36.4 nM
same,GI50,HL-60(TB) leukemia,33.6 nM
same,TGI,HL-60(TB) leukemia,101 nM
same,GI50,HCC-2998 colon,40.5 nM
same,TGI,HCC-2998 colon,264 nM
same,GI50,HOP-92 NSCLC,38.5 nM
same,TGI,HOP-92 NSCLC,4170 nM
same,GI50,TK-10 renal,50.9 nM
same,TGI,TK-10 renal,> 100000 nM
same,GI50,RPMI-8226 leukemia,19 nM
same,TGI,RPMI-8226 leukemia,37.5 nM
same,GI50,NCI-H23 lung,24.9 nM
same,TGI,NCI-H23 lung,77.4 nM
same,GI50,DU-145 prostate,177 nM
same,TGI,DU-145 prostate,1040 nM
same,GI50,NCI-H460 NSCLC,22.6 nM
same,TGI,NCI-H460 NSCLC,59.3 nM
same,GI50,MDA-MB-435 melanoma,17.1 nM
same,TGI,MDA-MB-435 melanoma,36.6 nM
same,GI50,HS 578T breast,15.4 nM
same,TGI,HS 578T breast,34.7 nM
same,GI50,PC-3 prostate,31.5 nM
same,TGI,PC-3 prostate,> 100000 nM
same,GI50,OVCAR-8 ovarian,30.3 nM
same,TGI,OVCAR-8 ovarian,93.8 nM
same,GI50,OVCAR-4 ovarian,24.6 nM
same,TGI,OVCAR-4 ovarian,95.5 nM
same,GI50,CAKI-1 renal,46 nM
same,TGI,CAKI-1 renal,> 100000 nM
same,GI50,BT-549 breast,48.1 nM
same,TGI,BT-549 breast,344 nM
CC(=O)N[C@@H]1CCC[C@H](C(=O)Nc2cc(-c3cnn4c3CC(C)(C)C4)c(Cl)cn2)C1,GI50,SF-539 CNS,< 10 nM
same,TGI,SF-539 CNS,< 10 nM
same,GI50,MALME-3M melanoma,< 10 nM
same,TGI,MALME-3M melanoma,14.4 nM
same,GI50,NCI-H322M lung,< 10 nM
same,TGI,NCI-H322M lung,< 10 nM
same,GI50,OVCAR-3 ovarian,< 10 nM
same,TGI,OVCAR-3 ovarian,< 10 nM
same,GI50,NCI-H522 lung,14.8 nM
same,TGI,NCI-H522 lung,36 nM
same,GI50,SK-MEL-28 melanoma,< 10 nM
same,TGI,SK-MEL-28 melanoma,11.4 nM
same,GI50,EKVX NSCLC,< 10 nM
same,TGI,EKVX NSCLC,39.6 nM
same,GI50,CCRF-CEM leukemia,< 10 nM
same,TGI,CCRF-CEM leukemia,< 10 nM
same,GI50,SNB-19 CNS,< 10 nM
same,TGI,SNB-19 CNS,> 100000 nM
same,GI50,RXF 393 renal,< 10 nM
same,TGI,RXF 393 renal,< 10 nM
same,GI50,MDA-MB-468 breast,< 10 nM
same,TGI,MDA-MB-468 breast,< 10 nM
same,GI50,SR leukemia,< 10 nM
same,TGI,SR leukemia,< 10 nM
same,GI50,M14 melanoma,< 10 nM
same,TGI,M14 melanoma,< 10 nM
same,GI50,UACC-257 melanoma,< 10 nM
same,TGI,UACC-257 melanoma,21.9 nM
same,GI50,UO-31 renal,24.5 nM
same,TGI,UO-31 renal,> 100000 nM
same,GI50,SN12C renal,< 10 nM
same,TGI,SN12C renal,14 nM
same,GI50,IGROV1 ovarian,< 10 nM
same,TGI,IGROV1 ovarian,> 100000 nM
same,GI50,SK-MEL-5 melanoma,< 10 nM
same,TGI,SK-MEL-5 melanoma,< 10 nM
same,GI50,COLO 205 colon,< 10 nM
same,TGI,COLO 205 colon,< 10 nM
same,GI50,SNB-75 CNS,< 10 nM
same,TGI,SNB-75 CNS,26.7 nM
same,GI50,SF-268 CNS,< 10 nM
same,TGI,SF-268 CNS,< 10 nM
same,GI50,ACHN renal,< 10 nM
same,TGI,ACHN renal,> 100000 nM
same,GI50,KM12 colon,< 10 nM
same,TGI,KM12 colon,< 10 nM
same,GI50,MOLT-4 leukemia,< 10 nM
same,TGI,MOLT-4 leukemia,< 10 nM
same,GI50,HCT-15 colon,< 10 nM
same,TGI,HCT-15 colon,21800 nM
same,GI50,NCI/ADR-RES ovarian,152 nM
same,TGI,NCI/ADR-RES ovarian,620 nM
same,GI50,UACC-62 melanoma,< 10 nM
same,TGI,UACC-62 melanoma,< 10 nM
same,GI50,HL-60(TB) leukemia,< 10 nM
same,TGI,HL-60(TB) leukemia,< 10 nM
same,GI50,T-47D breast,< 10 nM
same,TGI,T-47D breast,> 100000 nM
same,GI50,HCC-2998 colon,< 10 nM
same,TGI,HCC-2998 colon,13.9 nM
same,GI50,RPMI-8226 leukemia,< 10 nM
same,TGI,RPMI-8226 leukemia,< 10 nM
same,GI50,NCI-H23 lung,< 10 nM
same,TGI,NCI-H23 lung,10.3 nM
same,GI50,NCI-H460 NSCLC,< 10 nM
same,TGI,NCI-H460 NSCLC,313 nM
same,GI50,MDA-MB-435 melanoma,< 10 nM
same,TGI,MDA-MB-435 melanoma,44.3 nM
same,GI50,HS 578T breast,< 10 nM
same,TGI,HS 578T breast,< 10 nM
same,GI50,OVCAR-4 ovarian,< 10 nM
same,TGI,OVCAR-4 ovarian,18.3 nM
same,GI50,CAKI-1 renal,< 10 nM
same,TGI,CAKI-1 renal,> 100000 nM
same,GI50,BT-549 breast,< 10 nM
same,TGI,BT-549 breast,< 10 nM
